According to patent publication US9815839B2, “N-(1-(substituted-phenyl)ethyl)-9H-purin-6-amines as PI3K inhibitors” (Incyte Corporation, priority 2010, dated 2017):
Where a name gives a salt, the structure may show the parent alone.

target: T1, PI3Kδ (p110δ/p85α) (Homo sapiens, UniProt O00329); test: PI3Kδ scintillation proximity assay; type: biochemical; settings: 20 μM ATP, 4 nM PI3Kδ
T1 construct: purchased Millipore (Bedford, Mass.)
Description: Example A: PI3Kδ Scintillation Proximity Assay
Materials: [γ-^33P]ATP (10 mCi/mL) was purchased from Perkin-Elmer (Waltham, Mass.). Lipid kinase substrate, D-myo-Phosphatidylinositol 4,5-bisphosphate (PtdIns(4,5)P2)D (+)-sn-1,2-di-O-octanoylglyceryl, 3-O-phospho linked (PIP2), CAS 204858-53-7, was purchased from Echelon Biosciences (Salt Lake City, Utah). PI3Kδ (p110δ/p85α) was purchased from Millipore (Bedford, Mass.). ATP, MgCl2, DTT, EDTA, MOPS and CHAPS were purchased from Sigma-Aldrich (St. Louis, Mo.). Wheat Germ Agglutinin (WGA) YSi SPA Scintillation Beads was purchased from GE healthcare life sciences (Piscataway, N.J.).
The kinase reaction was conducted in polystyrene 384-well matrix white plate from Thermo Fisher Scientific in a final volume of 25 μL. Inhibitors were first diluted serially in DMSO and added to the plate wells before the addition of other reaction components. The final concentration of DMSO in the assay was 0.5%. The PI3K assays were carried out at room temperature in 20 mM MOPS, pH 6.7, 10 mM MgCl2, 5 mM DTT and CHAPS 0.03%. Reactions were initiated by the addition of ATP, the final reaction mixture consisted of 20 μM PIP2,20 μM ATP, 0.2 μCi [γ-^33P] ATP, 4 nM PI3Kδ. Reactions were incubated for 210 minutes and terminated by the addition of 40 μL SPA beads suspended in quench buffer: 150 mM potassium phosphate pH 8.0, 20% glycerol. 25 mM EDTA, 400 µM ATP. The final concentration of SPA beads is 1.0 mg/mL. After the plate sealing, plates were shaken overnight at room temperature and centrifuged at 1800 rpm for 10 minutes, the radioactivity of the product was determined by scintillation counting on Topcount (Perkin-Elmer). IC50 determination was performed by fitting the curve of percent control activity versus the log of the inhibitor concentration using the GraphPad Prism 3.0 software.

T1 sequence (O00329 whole entry, species assumed): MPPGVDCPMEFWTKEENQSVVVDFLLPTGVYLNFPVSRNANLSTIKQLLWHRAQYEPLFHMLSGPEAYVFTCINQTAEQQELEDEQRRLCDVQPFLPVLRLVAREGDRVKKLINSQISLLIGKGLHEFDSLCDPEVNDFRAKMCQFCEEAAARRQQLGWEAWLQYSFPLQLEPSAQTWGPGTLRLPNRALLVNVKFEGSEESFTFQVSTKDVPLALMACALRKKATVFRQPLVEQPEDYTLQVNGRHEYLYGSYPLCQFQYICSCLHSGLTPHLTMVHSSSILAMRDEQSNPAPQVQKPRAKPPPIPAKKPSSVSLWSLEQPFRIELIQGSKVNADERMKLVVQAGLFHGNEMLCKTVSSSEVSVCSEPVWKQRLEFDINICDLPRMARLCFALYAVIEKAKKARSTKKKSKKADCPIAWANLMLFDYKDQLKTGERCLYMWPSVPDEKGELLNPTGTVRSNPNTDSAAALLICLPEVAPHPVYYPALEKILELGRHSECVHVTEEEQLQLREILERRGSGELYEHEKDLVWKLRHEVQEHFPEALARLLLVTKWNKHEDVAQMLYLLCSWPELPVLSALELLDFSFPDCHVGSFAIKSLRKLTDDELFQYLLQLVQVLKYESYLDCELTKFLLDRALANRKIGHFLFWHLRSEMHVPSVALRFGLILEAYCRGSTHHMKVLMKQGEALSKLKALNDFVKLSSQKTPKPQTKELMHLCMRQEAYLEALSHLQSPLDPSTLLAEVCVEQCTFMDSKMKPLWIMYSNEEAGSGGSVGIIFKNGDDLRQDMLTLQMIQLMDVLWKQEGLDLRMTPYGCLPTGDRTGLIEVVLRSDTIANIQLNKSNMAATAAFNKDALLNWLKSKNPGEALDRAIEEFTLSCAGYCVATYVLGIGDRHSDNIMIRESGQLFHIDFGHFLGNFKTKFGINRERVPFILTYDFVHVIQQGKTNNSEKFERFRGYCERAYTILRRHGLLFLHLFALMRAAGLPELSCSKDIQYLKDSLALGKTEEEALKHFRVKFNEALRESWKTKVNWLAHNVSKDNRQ
T1 sequence (P27986 whole entry partner, species assumed): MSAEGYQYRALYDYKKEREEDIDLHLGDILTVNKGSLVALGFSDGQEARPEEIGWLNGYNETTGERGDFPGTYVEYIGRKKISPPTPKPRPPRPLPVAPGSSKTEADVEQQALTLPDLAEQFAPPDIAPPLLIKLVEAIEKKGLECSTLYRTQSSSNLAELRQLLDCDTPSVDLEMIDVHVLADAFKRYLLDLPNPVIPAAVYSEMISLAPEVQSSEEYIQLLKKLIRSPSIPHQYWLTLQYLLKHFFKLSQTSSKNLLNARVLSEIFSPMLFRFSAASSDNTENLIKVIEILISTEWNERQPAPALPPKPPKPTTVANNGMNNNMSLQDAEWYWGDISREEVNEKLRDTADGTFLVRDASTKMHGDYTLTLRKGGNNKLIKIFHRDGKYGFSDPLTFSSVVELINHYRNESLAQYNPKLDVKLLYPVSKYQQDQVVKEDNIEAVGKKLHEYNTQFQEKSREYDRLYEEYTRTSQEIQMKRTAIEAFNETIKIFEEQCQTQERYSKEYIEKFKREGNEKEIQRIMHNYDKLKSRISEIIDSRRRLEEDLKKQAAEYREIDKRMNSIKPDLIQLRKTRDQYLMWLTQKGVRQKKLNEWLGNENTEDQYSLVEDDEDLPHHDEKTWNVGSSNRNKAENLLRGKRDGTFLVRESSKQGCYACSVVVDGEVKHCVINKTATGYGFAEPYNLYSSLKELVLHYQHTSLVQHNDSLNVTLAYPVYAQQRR

Compound	IC50
COc1c(-c2ccc(S(C)(=O)=O)cc2)cc(Cl)cc1C(C)Nc1ncnc2[nH]cnc12 (stereo not shown) [Example 142, N-{1-[5-chloro-2-methoxy-4′-(methylsulfonyl)-biphenyl-3-yl]ethyl}-9H-purin-6-amine]	50 to 100 nM
COc1c(C(C)Nc2ncnc3[nH]cnc23)cc(Cl)c(Cl)c1C1CN(C2CCC2)C1 (stereo not shown) [Example 209, N-{1-[4,5-Dichloro-3-(1-cyclobutylazetidin-3-yl)-2-methoxyphenyl]ethyl}-9H-purin-6-amine bistrifluoroacetate]	< 50 nM
CC(=O)Nc1ccc(-c2c(C)c(Cl)cc(C(C)Nc3ncnc4[nH]cnc34)c2OCCN2CCOCC2)cn1 (stereo not shown) [Example 158, N-(5-{3-chloro-2-methyl-6-(2-morpholin-4-ylethoxy)-5-[1-(9H-purin-6-yl-amino)ethyl]-phenyl}-pyridin-2-yl)acetamide]	< 50 nM
COc1cncc(-c2cc(Cl)cc(C(C)Nc3ncnc4[nH]cnc34)c2OC)c1 (stereo not shown) [Example 146, N-{1-[5-chloro-2-methoxy-3-(5-methoxy-pyridin-3-yl)phenyl]ethyl}-9H-purin-6-amine]	50 to 100 nM
CC(Nc1ncnc2[nH]cnc12)c1cc(Cl)cc(-c2cncnc2)c1-c1cc(F)cc(F)c1 (stereo not shown) [Example 132, N-[1-(4-chloro-3′,5′-difluoro-6-pyrimidin-5-ylbiphenyl-2-yl)ethyl]-9H-purin-6-amine]	< 50 nM
CCOc1c(C(C)Nc2ncnc3[nH]cnc23)cc(Cl)c(C)c1C1CN(C)C1 (stereo not shown) [Example 173, N-{1-[5-chloro-2-ethoxy-4-methyl-3-(1-methylazetidin-3-yl)phenyl]ethyl}-9H-purin-6-amine]	< 50 nM
COc1c(C(C)Nc2ncnc3[nH]cnc23)cc(Cl)c(Cl)c1C1CN(CC(F)(F)F)C1 (stereo not shown) [Example 207, N-(1-{4,5-Dichloro-2-methoxy-3-[1-(2,2,2-trifluoroethyl)azetidin-3-yl]phenyl}ethyl)-9H-purin-6-amine bis(trifluoroacetate)]	< 50 nM
COc1c(C(C)Nc2ncnc3[nH]cnc23)cc(F)c(C)c1-c1cnn(C)c1 (stereo not shown) [Example 121, N-{1-[5-fluoro-2-methoxy-4-methyl-3-(1-methyl-1H-pyrazol-4-yl)phenyl]ethyl}-9H-purin-6-amine]	< 50 nM
COc1c(C(C)Nc2ncnc3[nH]cnc23)cc(Cl)c(C)c1C1CN(C(C)C)C(=O)O1 (stereo not shown) [Example 189, 5-{3-Chloro-6-methoxy-2-methyl-5-[1-(9H-purin-6-ylamino)ethyl]phenyl}-3-isopropyl-1,3-oxazolidin-2-one trifluoroacetate]	< 50 nM
COc1c(C(C)Nc2ncnc3[nH]cnc23)cc(Cl)c(C)c1-c1ccc(C(N)=O)c(F)c1 (stereo not shown) [Example 62, 3′-Chloro-3-fluoro-6′-methoxy-2′-methyl-5′-[1-(9H-purin-6-ylamino)ethyl]biphenyl-4-carboxamide]	< 50 nM
CNC(=O)c1cc(-c2c(C)c(Cl)cc(C(C)Nc3ncnc4[nH]cnc34)c2OC)cn1C (stereo not shown) [Example 175, 4-{3-Chloro-6-methoxy-2-methyl-5-[1-(9H-purin-6-ylamino)ethyl]phenyl}-N,1-dimethyl-1H-pyrrole-2-carboxamide]	< 50 nM
Cc1c(Cl)cc(C(C)Nc2ncnc3[nH]cnc23)c(OCCN2CCOCC2)c1-c1cncc(S(C)(=O)=O)c1 (stereo not shown) [Example 156, N-{1-[5-chloro-4-methyl-3-[5-(methyl-sulfonyl)-pyridin-3-yl]-2-(2-morpholin-4-ylethoxy)-phenyl]-ethyl}-9H-purin-6-amine]	< 50 nM
COc1c(C(C)Nc2ncnc3[nH]cnc23)cc(Cl)c(C)c1-c1cnn(CC#N)c1 (stereo not shown) [Example 117, (4-{3-Chloro-6-methoxy-2-methyl-5-[1-(9H-purin-6-ylamino)ethyl]phenyl}-1H-pyrazol-1-yl)acetonitrile trifluoroacetate]	< 50 nM
CCC(Nc1ncnc2[nH]cnc12)c1cc(Cl)c(C)c(-c2cncc(F)c2)c1OC (stereo not shown) [Example 181, N-{1-[5-chloro-3-(5-fluoropyridin-3-yl)-2-methoxy-4-methylphenyl]propyl}-9H-purin-6-amine bis(2,2,2-trifluoroacetate)]	< 50 nM
Cc1c(Cl)cc(C(C)Nc2ncnc3[nH]cnc23)c(OCCN2CCOCC2)c1-c1cncc(Cl)c1 (stereo not shown) [Example 151, N-{1-[5-chloro-3-(5-chloro-pyridin-3-yl)-4-methyl-2-(2-morpho-lin-4-yl-ethoxy)-phenyl]-ethyl}-9H-purin-6-amine]	< 50 nM
COc1c(C(C)Nc2ncnc3[nH]cnc23)cc(Cl)c(C)c1-c1cncc(F)c1 (stereo not shown) [Example 108, N-{1-[5-Chloro-3-(5-fluoropyridin-3-yl)-2-methoxy-4-methylphenyl]ethyl}-9H-purin-6-amine]	< 50 nM

Compound	IC50
COc1c(-c2cnc(N)nc2)cc(Cl)cc1C(C)Nc1ncnc2[nH]cnc12 (stereo not shown) [Example 143, N-{1-[3-(2-amino-pyrimidin-5-yl)-5-chloro-2-methoxyphenyl]-ethyl}-9H-purin-6-amine]	100 to 250 nM
COc1c(C(C)Nc2ncnc3[nH]cnc23)cc(F)c(C)c1-c1ccc(S(C)(=O)=O)cc1 (stereo not shown) [Example 118, N-{1-[5-Fluoro-2-methoxy-6-methyl-4′-(methylsulfonyl)biphenyl-3-yl]ethyl}-9H-purin-6-amine]	50 to 100 nM
COc1c(-c2cncc(Cl)c2)cc(Cl)cc1C(C)Nc1ncnc2[nH]cnc12 (stereo not shown) [Example 125, N-{1-[5-Chloro-3-(5-chloropyridin-3-yl)-2-methoxyphenyl]ethyl}-9H-purin-6-amine]	50 to 100 nM
COc1c(C(C)Nc2ncnc3[nH]cnc23)cc(Cl)c(Cl)c1C1CN(CC(F)F)C1 (stereo not shown) [Example 210, N-(1-{4,5-Dichloro-3-[1-(2,2-difluoroethyl)azetidin-3-yl]-2-methoxyphenyl}ethyl)-9H-purin-6-amine bis(trifluoroacetate)]	< 50 nM
CCOc1c(C(C)Nc2ncnc3[nH]cnc23)cc(C)c(C#N)c1-c1cncc(S(C)(=O)=O)c1 (stereo not shown) [Example 186, 3-ethoxy-6-methyl-2-[5-(methylsulfonyl)pyridin-3-yl]-4-[1-(9H-purin-6-ylamino)ethyl]benzonitrile bis(2,2,2-trifluoroacetate)]	< 50 nM
1-{3′-chloro-3-fluoro-6′-methoxy-2′-methyl-5′-[1-(9H-purin-6-ylamino)ethyl]biphenyl-4-yl]carbonyl)piperidin-4-ol [Example 69]	< 50 nM
COc1ccc(-c2c(C)c(Cl)cc(C(C)Nc3ncnc4[nH]cnc34)c2OC)cc1 (stereo not shown) [Example 101]	100 to 250 nM
CC(Nc1ncnc2[nH]cnc12)c1cc(Cl)cc(-c2cnc(N)nc2)c1-c1cc(F)cc(F)c1 (stereo not shown) [Example 135, N-{1-[6-(2-amino-pyrimidin-5-yl)-4-chloro-3′,5′-difluorobiphenyl-2-yl]ethyl}-9H-purin-6-amine]	< 50 nM
COc1c(C(C)Nc2ncnc3[nH]cnc23)cc(Cl)c(C)c1C1CN(C(C)C)C(=O)CO1 (stereo not shown) [Example 191, 6-{3-Chloro-6-methoxy-2-methyl-5-[1-(9H-purin-6-ylamino)ethyl]phenyl}-4-isopropylmorpholin-3-one trifluoroacetate]	< 50 nM
CNC(=O)c1ccc(-c2c(C)c(Cl)cc(C(C)Nc3ncnc4[nH]cnc34)c2OCCN2CCOCC2)cc1Cl (stereo not shown) [Example 154]	< 50 nM
CC(Nc1ncnc2[nH]cnc12)c1cc(Cl)cc(-c2ccc(S(C)(=O)=O)cc2)c1-c1cc(F)cc(F)c1 (stereo not shown) [Example 134, N-{1-[5′-chloro-3″,5″-difluoro-4-(methyl-sulfonyl)-1,1′:2′,1″-terphenyl-3′-yl]ethyl}-9H-purin-6-amine]	< 50 nM
COc1c(C(C)Nc2ncnc3[nH]cnc23)cc(F)c(C)c1-c1ccc(C(=O)NC2CC2)cc1 (stereo not shown) [Example 120, N-cyclopropyl-3′-fluoro-6′-methoxy-2′-methyl-5′-[1-(9H-purin-6-ylamino)ethyl]biphenyl-4-carboxamide]	50 to 100 nM
Cc1c(Cl)cc(C(C)Nc2ncnc3[nH]cnc23)c(OCCN2CCOCC2)c1-c1ccc(S(C)(=O)=O)cc1 (stereo not shown) [Example 128, N-{1-[5-Chloro-6-methyl-4′-(methylsulfonyl)-2-(2-morpholin-4-ylethoxy)biphenyl-3-yl]ethyl}-9H-purin-6-amine]	< 50 nM
COc1ncc(-c2cc(Cl)cc(C(C)Nc3ncnc4[nH]cnc34)c2-c2cc(F)cc(F)c2)cn1 (stereo not shown) [Example 129, N-{1-[4-chloro-3′,5′-difluoro-6-(2-methoxy-pyrimidin-5-yl)biphenyl-2-yl]ethyl}-9H-purin-6-amine]	< 50 nM
COc1c(C(C)Nc2ncnc3[nH]cnc23)cc(Cl)c(C)c1C1CNC(=O)C1 (single isomer, unassigned) [Example 192, 4-{3-chloro-6-methoxy-2-methyl-5-[1-(9H-purin-6-ylamino)ethyl]phenyl}pyrrolidin-2-one]	< 50 nM
